Data reported in US5147876A, “2,6-di,2,4,6-, 2,5,6-tri and 2,4,5,6-tetra-substituted pyrimidines, their pharmaceutically acceptable salts, pharmaceutical compositions containing same and their use in the treatment of neurological diseases” (Mitsui Petrochemical Industries, Ltd., priority 1988, dated 1992).

Experiments:
[1] = system: neuro-2a (mouse neuroblastoma cells); test: Action on neuro-2a: proportion of cells containing outgrown neurites; assay type: cell-based; details: mean ± S.D.
Protocol: (§1) The effects of the compounds of this invention on neuroblastoma cells were examined by the following method.
(§2) Mouse neuro 2a cells in the logarithmic growth period in the Dulbecco's modified Eagle's medium DMEM, containing 100 units/ml of penicillin G sodium and 100 micrograms/ml of streptomycin sulfate]containing 10 % of FCS were seeded in a 48-well plate so that the number of cells was 1,000 cells/well, and cultured for one day in 0.25 ml of the culture fluid in each well in an incubator containing 5 % of carbon dioxide gas in air at 37° C. Then, a 4 % aqueous glutaraldehyde solution in the same amount as a medium (0.25 ml) was added, and the culture fluid was left to stand at room temperature for 2 hours to fix the cells. After washing with water, a 0.05 % aqueous solution of methylene blue was added to stain the cells Under a microscope, the number of cells containing outgrown neurites (cells having at least one neurite with a length of at least two times as large as the long diameter of the cell) was counted visually, and the proportion of these cells in the entire cells was calculated. The well was observed over 5 or more visual fields (at least 2 % of the entire surface area of the well) continuous to the left and right from a mark put at the center of the well, and more than 200 cells was counted. One drug compound was used in 6 different concentrations at most, and three runs were conducted for each concentrations.

Acute toxicity on mice = assay type: in vivo; details: mouse, in vivo, ip, 24 hours after administration; read-out: Estimated LD50
Protocol: The acute toxicity of the compounds of the invention was examined by the following method.
Male ddy-strain 5-week old mice, 4-6- per group, were used as experimental animals. Each of the compounds was intraperitoneally (i.p.), and the toxicity of the compound was assessed 24 hours after the administration.

[2] = system: NS-20Y (mouse neuroblastoma cells); test: Activity on NS-20Y cells: appearance of neurites; assay type: cell-based
Protocol: as §1, §2
Mouse neuroblastoma cells NS-20Y were similarly cultured in a dish coated with polyornithine, and the effects of the compounds were examined.

| SMILES | Number of cells having neurites with a length at least two times the diameter of each cell/total number of cells ([1]; 0.03 mM) [%] | Number of cells having neurites with a length at least two times the diameter of each cell/total number of cells ([1]; 0.1 mM) [%] | LD50 at 24 h (Acute toxicity on mice) [mg/kg] | Number of cells having neurites with a length at least two times the diameter of each cell/total number of cells ([1]; 0.3 mM) [%] | Number of cells having neurites with a length at least two times the diameter of each cell/total number of cells ([1]; 1 mM) [%] | also measured |
| --- | --- | --- | --- | --- | --- | --- |
| CCCN(C(=O)c1ccccc1)c1nccc(N2CCC(c3ccccc3)CC2)n1 [Compound 644] | 26.1 ± 7.3 | 14.7 ± 7.3 | > 1000 | – | – | – |
| CC1CC(C)CN(c2nccc(N(C)C(=O)c3ccccc3)n2)C1 (stereo not drawn) [Compound 2004] | 6.6 ± 2.2 | 30.2 ± 6.4 | > 1000 | – | – | – |
| CN(C(=O)N1CCOCC1)c1ccnc(N2CCC(c3ccccc3)CC2)n1 [Compound 2326] | 4.6 ± 1.4 | 8.3 ± 2.6 | 500 to 1000 | – | – | – |
| CN(C(=O)c1cccnc1)c1ccnc(N2CCC(c3ccccc3)CC2)n1 [Compound 2140] | 5.4 ± 3.9 | 17.0 ± 1.2 | > 1000 | – | – | – |
| CN(C(=O)Nc1ccccc1)c1ccnc(N2CCC(c3ccccc3)CC2)n1 [Compound 2218] | 9.7 ± 1.8 | 11.4 ± 6.1 | 500 to 1000 | – | – | – |
| CNc1nc(C)cc(N2CCC(c3ccccc3)CC2)n1 [Compound 1158] | 9.9 ± 1.4 | 18.4 ± 3.0 | < 250 | 22.1 ± 6.7 | 19.1 ± 2.7 | – |
| CN1C(=O)Cc2cnc(N3CCN(C(c4ccc(F)cc4)c4ccc(F)cc4)CC3)nc21 [Compound 3184] | 3.7 ± 1.1 | 13.9 ± 2.3 | 500 to 1000 | 18.4 ± 1.9 | 17.0 ± 2.1 | – |
| CN(C(=O)c1ccccc1)c1ccnc(N2CCC(CO)CC2)n1 [Compound 2164] | – | 4.6 ± 1.1 | > 1000 | – | 11.7 ± 0.7 | – |
| CC(=O)N(C)c1ccnc(N2CCc3ccccc3C2)n1 [Compound 312] | 4.5 ± 0.4 | 9.7 ± 0.9 | > 1000 | – | – | – |
| Cc1cnc(N2CCCCC2)nc1N(C)C(=O)c1ccccc1 [Compound 408] | – | 9.1 ± 1.8 | 500 to 1000 | 9.6 ± 3.9 | – | – |
| CN(Cc1ccccc1)c1ccnc(N2CCC(c3ccccc3)CC2)n1 [Compound 2278] | 13.9 ± 6.3 | 12.5 ± 1.3 | 500 to 1000 | – | – | – |
| CN(C(=O)c1ccccc1)c1ccnc(N2CCC(OS(=O)(=O)c3ccccc3)CC2)n1 [Compound 2350] | – | – | 500 to 1000 | 5.9 ± 1.5 | 8.3 ± 2.0 | – |
| CC1CCCCN1c1nccc(N(C)C(=O)c2ccccc2)n1 (stereo not drawn) [Compound 154] | 5.2 ± 1.5 | 16.2 ± 2.1 | > 1000 | – | – | – |
| CN(C(=O)Oc1ccccc1)c1ccnc(N2CCC(c3ccccc3)CC2)n1 [Compound 2334] | 13.2 ± 0.2 | 16.7 ± 0.8 | > 1000 | – | – | – |
| CCOC(=O)N(C)c1ccnc(N2CCC(c3ccccc3)CC2)n1 [Compound 2242] | 3.3 ± 0.9 | 24.8 ± 2.9 | 500 to 1000 | – | – | – |
| CC1CCCN(c2nccc(N(C)C(=O)c3ccccc3)n2)C1 (stereo not drawn) [Compound 138] | 6.3 ± 1.8 | 12.6 ± 4.1 | > 1000 | – | – | – |
| CN(C(=O)c1ccc(N)cc1)c1ccnc(N2CCC(c3ccccc3)CC2)n1 [Compound 2182] | 8.0 ± 3.2 | 2.7 ± 0.9 | 500 to 1000 | – | – | – |
| CC(=O)N(C)c1cc(C)nc(N2CCCCC2)n1 [Compound 384] | – | – | – | 10.4 ± 2.5 | 10.8 ± 7.2 | Number of cells in which neurites appeared/total number of cells ([2]; 24 hours, 0.4 mM): 8/50; Number of cells in which neurites appeared/total number of cells ([2]; 48 hours, 0.4 mM): 3/50 |
| CN(C(=O)C(C)(C)C)c1ccnc(N2CCC(c3ccccc3)CC2)n1 [Compound 224] | 4.6 ± 1.7 | 5.5 ± 1.5 | – | – | – | Number of cells in which neurites appeared/total number of cells ([2]; 24 hours, 0.02 mM): 6/50; Number of cells in which neurites appeared/total number of cells ([2]; 48 hours, 0.02 mM): 3/50 |
| CN(C)CCN(C(=O)c1ccccc1)c1ccnc(N2CCC(c3ccccc3)CC2)n1 [Compound 200] | 7.6 ± 1.6 | – | – | – | – | Number of cells having neurites with a length at least two times the diameter of each cell/total number of cells ([1]; 0.01 mM): 4.2 ± 1.6%; Number of cells in which neurites appeared/total number of cells ([2]; 24 hours, 0.02 mM): 4/50; Number of cells in which neurites appeared/total number of cells ([2]; 48 hours, 0.02 mM): 2/50 |
| CC(=O)N(C)c1nc(N2CCC(c3ccccc3)CC2)ncc1C [Compound 416] | – | 13.2 ± 1.3 | – | 10.8 ± 1.5 | – | Number of cells in which neurites appeared/total number of cells ([2]; 24 hours, 0.1 mM): 7/50; Number of cells in which neurites appeared/total number of cells ([2]; 24 hours, 0.4 mM): 11/50; Number of cells in which neurites appeared/total number of cells ([2]; 48 hours, 0.1 mM): 2/50 |
| CNc1nc(N2CCCCC2)ncc1C [Compound 1094] | – | 5.4 ± 1.9 | – | 16.9 ± 1.2 | 10.9 ± 1.1 | Number of cells in which neurites appeared/total number of cells ([2]; 24 hours, 0.1 mM): 4/54; Number of cells in which neurites appeared/total number of cells ([2]; 24 hours, 0.4 mM): 7/48; Number of cells in which neurites appeared/total number of cells ([2]; 48 hours, concentration printed "0. mM"): 2/50 |
| CCOC(=O)c1cnc(NC(C)C)nc1CN(C)C [Compound 828] | – | – | – | 7.3 ± 1.6 | 6.1 ± 2.0 | Number of cells in which neurites appeared/total number of cells ([2]; 24 hours, 0.3 mM): 10/58; Number of cells in which neurites appeared/total number of cells ([2]; 24 hours, 0.5 mM): 5/59; Number of cells in which neurites appeared/total number of cells ([2]; 48 hours, 0.3 mM): 6/50; Number of cells in which neurites appeared/total number of cells ([2]; 48 hours, 0.5 mM): 5/51 |
